Results: publication PMC8146912, “Phenolic Compounds of Reynoutria sp. as Modulators of Oral Cavity Lactoperoxidase System” (Antioxidants, 2021)

Tests used:
Assay type in all cases: biochemical
Lactoperoxidase (LPO) [1] = molecular target: T1, Lactoperoxidase (LPO) (Bos taurus, UniProt P80025); experiment: Ellman's reagent assay of OSCN- formation, […] nm
T1 construct: native enzyme from bovine milk, commercial lyophilisate (Sigma-Aldrich), heme-containing, mature secreted form

Lactoperoxidase (LPO) [2] = molecular target: T1, Lactoperoxidase (LPO); experiment: Ellman's reagent assay of OSCN- formation, […] nm; remark: listed apart in the source
Lactoperoxidase (LPO) [3] = molecular target: T1, Lactoperoxidase (LPO); experiment: stopped-flow spectrophotometry, reduction of LPO Compound II to native LPO; details: 1 µM LPO, 0.75 µM H2O2, 20 mM phosphate pH 6, 15 °C; one-electron donor in peroxidation cycle

| SMILES | EC50 (Lactoperoxidase (LPO) [1]) [nM] | IC50 (Lactoperoxidase (LPO) [2]) [nM] | k (Compound II -> Native LPO) (Lactoperoxidase (LPO) [3]) |
| --- | --- | --- | --- |
| Oc1ccc(/C=C/c2cc(O)cc(O)c2)cc1 [b, Resveratrol] | 9 ± 2 | 423 ± 18 |  |
| Oc1cc(O)c2c(c1)O[C@H](c1ccc(O)c(O)c1)[C@H](O)C2 [a, (-)-Epicatechin] | 1310 ± 239 | 74100 ± 3620 |  |
| Cc1cc(O)c2c(c1)C(=O)c1cc(O)cc(O)c1C2=O [c, Emodin] |  |  | this compound may be a substrate for LPO Compound I and Compound II |
